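Five compound concentrations were applied to cells in 96-well plates for 48 hours; endpoints were derived by simple linear interpolation of the resulting dose-response curve. Here, GI50 denotes the concentration required for 50% inhibition of growth. TGI: total growth inhibition.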
Experiments:
Assay in all cases: DTP human tumour cell line panel, 48 h
SN12C renal = test system: SN12C renal
NCI-H460 lung = test system: NCI-H460 lung
U251 CNS = test system: U251 CNS
EKVX NSCLC = test system: EKVX NSCLC
SK-MEL-5 melanoma = test system: SK-MEL-5 melanoma
HT29 colon = test system: HT29 colon
SW-620 colon = test system: SW-620 colon
MDA-N = test system: MDA-N
OVCAR-4 ovarian = test system: OVCAR-4 ovarian
KM12 colon = test system: KM12 colon

| Structure (SMILES) | TGI (SN12C renal) [µM] | TGI (NCI-H460 lung) [µM] | TGI (U251 CNS) [µM] | TGI (EKVX NSCLC) [µM] | TGI (SK-MEL-5 melanoma) [µM] | TGI (HT29 colon) [µM] | TGI (SW-620 colon) [µM] | TGI (MDA-N) [µM] | TGI (OVCAR-4 ovarian) [µM] | TGI (KM12 colon) [µM] | GI50 (SN12C renal) [µM] | GI50 (NCI-H460 lung) [µM] | GI50 (U251 CNS) [µM] | GI50 (EKVX NSCLC) [µM] | GI50 (SK-MEL-5 melanoma) [µM] | GI50 (HT29 colon) [µM] | GI50 (SW-620 colon) [µM] | GI50 (OVCAR-4 ovarian) [µM] | GI50 (KM12 colon) [µM] |
| --- | --- | --- | --- | --- | --- | --- | --- | --- | --- | --- | --- | --- | --- | --- | --- | --- | --- | --- | --- |
| O=C(Cn1nc(Br)c(Br)c1Br)c1ccccc1 | > 100 | 63.9 | > 100 | > 100 | 34.5 | 43.5 | > 100 | > 100 | > 100 | > 100 |  |  |  |  |  |  |  |  |  |
| COc1cc(OC)c2c(c1OC)OCC(Cc1ccc(O)cc1)C2=O (stereo unspecified) | > 25 | > 25 | > 25 |  | > 25 | > 25 | > 25 | > 25 | > 25 | > 25 |  |  |  |  |  |  |  |  |  |
| CC1CCCC2=C1C(c1ccc(Cl)cc1)n1c(s/c(=C\c3ccc(Cl)cc3)c1=O)=N2 (stereo unspecified) | > 100 |  | > 100 | > 100 | > 100 | > 100 | > 100 | > 100 |  | > 100 |  |  |  |  |  |  |  |  |  |
| NNC(=O)CNC(=O)CSc1nnc(COc2ccc(Cl)cc2)n1-c1ccccc1 | > 100 | > 100 | > 100 | > 100 |  | > 100 | > 100 | > 100 | > 100 | > 100 |  |  |  |  |  |  |  |  |  |
| O=C1c2ccccc2CC12Cc1cc3c(cc1C2=O)CCC3 (stereo unspecified) |  | > 100 | > 100 | > 100 | > 100 | > 100 | > 100 | > 100 | > 100 |  |  |  |  |  |  |  |  |  |  |
| CC[C@@]1(O)C(=O)OCc2c1cc1n(c2=O)Cc2c-1nc1ccccc1c2CC[Si](C)(C)C |  | < 0.0335 | 0.103 | > 100 | < 0.0425 | > 40.6 | > 100 | > 100 |  |  |  |  |  |  |  |  |  |  |  |
| O=C(/C=C/c1ccc(O)c(O)c1)OCCc1cccc2ccccc12 | 7.96 | 29.9 | 21.7 |  | 5.31 | 27.5 | 18.9 | 5.26 | 23.9 | 23.4 |  |  |  |  |  |  |  |  |  |
| CC(C)OP(=O)(CN(C)/C(F)=N\C(F)(F)F)OC(C)C | > 100 | > 100 | > 100 | > 100 | > 100 | > 100 | > 100 | > 100 |  | > 100 |  |  |  |  |  |  |  |  |  |
| NNC(=O)c1c(Cl)c(Cl)c(Cl)c(Cl)c1-c1nc2ccccc2[nH]1 | > 100 | 31 |  | 45.3 | 29.9 | 61.8 | 67.6 | 18.9 |  | 29.1 |  |  |  |  |  |  |  |  |  |
| CC(=O)c1ccc(Oc2ccc(/C(C)=N\N=C(N)N)cc2)cc1 | 13.4 | 10.5 | 10 | 16.7 | 6.98 | 3.52 |  |  | 23 |  |  |  |  |  |  |  |  |  |  |
| COC(=O)CC1(CNC(=O)OCc2ccccc2)OCCO1 | > 100 | > 100 | > 100 | > 100 | > 100 |  | > 100 | > 100 | > 100 | > 100 |  |  |  |  |  |  |  |  |  |
| O=c1[nH]c2ccc(CC(=S)N3CCOCC3)cc2s1 | > 100 | > 100 | > 100 | > 100 | > 100 | > 100 | > 100 | > 100 |  | > 100 |  |  |  |  |  |  |  |  |  |
| O=C(NO)c1coc2ccccc2c1=O | > 100 |  | > 100 | > 100 | > 100 | > 100 | > 100 |  | > 100 | > 100 |  |  |  |  |  |  |  |  |  |
| COP(C)(=O)/C(Cc1ccccc1)=N\O (stereo unspecified) | > 100 | > 100 | > 100 |  | > 100 | > 100 | > 100 | > 100 | > 100 |  |  |  |  |  |  |  |  |  |  |
| Cc1csc2nc(-c3ccc([N+](=O)[O-])cc3)c(/C=N/N=C(N)N)n12 | 3.28 | 3.43 | 3.24 | 2.73 | 3.96 | 3.21 |  | 3.51 | 3.04 | 3.49 |  |  |  |  |  |  |  |  |  |
| CCOc1ccc2c(c1)/C(=C(\C(Cl)=C(Cl)Cl)[N+](=O)[O-])N2 | > 100 | > 100 | > 100 | > 100 |  | > 100 | > 100 | > 100 | > 100 | > 100 |  |  |  |  |  |  |  |  |  |
| O=C1OCC(C#Cc2ccccc2)=C1Cl | 12.3 | > 100 | 3.13 | 6.17 | 23.5 | 12.9 | 5.07 |  | 73.1 | 12.1 | 2.89 | 7.59 | 1.59 | 1.91 | 10 | 1.05 | 0.83 | 15.5 | 2.65 |
| c1ccc(C2SCC3=Nc4ccccc4CN32)cc1 (stereo unspecified) | > 100 | > 100 | > 100 |  | 32.2 | 50.7 | > 100 | > 100 | > 100 | > 100 |  |  |  |  |  |  |  |  |  |
| CC(=O)O[C@H]1CC[C@]2(C)[C@H]3CC[C@@H]4[C@H]5[C@H](C(C)C)CC[C@]5(C(=O)OCC(CO)(CO)N=C(N)N)CC[C@@]4(C)[C@]3(C)CC[C@H]2C1(C)C |  |  |  | 3.53 |  | 3.29 |  |  | 3.32 | 3.36 |  |  |  | 1.8 |  | 1.75 |  | 1.68 | 1.75 |
| CC(=O)[O-].CC(=O)[O-].O=C(N/N=C/c1cc(Cl)cc(Cl)c1[OH2+])c1ccncc1.[Co+2] | > 100 | > 100 |  | > 100 | > 100 | > 100 | > 100 |  |  | > 100 |  |  |  |  |  |  |  |  |  |
| CC[N+]1(C)CCC(O)(c2ccc(Cl)cc2)C(C(=O)c2ccc(Cl)cc2)C1 (stereo unspecified) | 37.5 | 63.8 | 56.8 |  |  | 94.4 |  | 41.3 | 78.4 | 31.7 |  |  |  |  |  |  |  |  |  |
| Cc1ccc(/C=C/C(=O)c2c([O-])on[n+]2-c2ccccc2)cc1 | 31.3 | 6.38 | 10.7 | 14.6 | > 32.5 | 3.84 |  | > 26.3 | > 21.1 | 7.69 |  |  |  |  |  |  |  |  |  |
| Cc1cc2[nH]c3c(C#N)c(-c4ccccc4)c(N=Nc4cccc(C(F)(F)F)c4)c(=O)n3c2cc1C | > 100 | > 100 | > 100 | > 100 | 51.8 |  | > 100 | > 100 | > 100 | > 100 |  |  |  |  |  |  |  |  |  |
| CCOP(=O)(Nc1ccc(-c2ccccc2)cc1)OCC |  | > 100 | > 100 | > 100 | > 100 | > 100 |  | > 100 | > 100 | > 100 |  |  |  |  |  |  |  |  |  |

Reference: PubChem BioAssay (NCI)
